The source of these data is ChEMBL document CHEMBL2440112, “Structure-activity relationships of the aromatic site in novel anticonvulsant pyrrolo[1,2-a]pyrazine derivatives” (Bioorg Med Chem Lett, 2013).

Data set [1] deals with Mus musculus. The data set is described as follows: Anticonvulsant activity in albino mouse assessed as protection against subcutaneous metrazole-induced seizures at 100 mg/kg, ip after 4 hrs. Also noted: dose 100 mg/kg. It is filed as functional, organism-based.
The subject of data set [2] is Mus musculus. In words: Anticonvulsant activity in albino mouse assessed as protection against subcutaneous metrazole-induced seizures at 100 mg/kg, ip after 0.5 hrs. It is filed as functional, organism-based. Also noted: dose 100 mg/kg.
Data set [3] concerns Mus musculus. The data set is described as follows: Anticonvulsant activity in albino mouse assessed as protection against maximal electroshock-induced seizures at 100 mg/kg, ip after 4 hrs. It is filed as functional, organism-based. Set-up: dose 100 mg/kg. For orientation: In the maximal electroshock model the usual endpoint is tonic extension of the hind limbs.
The subject of data set [4] is Rattus norvegicus. The data set is described as follows: Anticonvulsant activity in po dosed albino Sprague-Dawley rat assessed as protection against maximal electroshock-induced seizures after […] to 4 hrs. It is filed as functional, organism-based.
The test system of data set [5] is Mus musculus. In words: Neurotoxicity in albino mouse assessed as minimal motor impairment at 100 mg/kg, ip after 0.5 hrs by rotorod test. It is filed as toxicity, organism-based. Set-up: dose 100 mg/kg, route intraperitoneal. As to conditions: in vivo. Background: In the rotarod test animals must keep their balance on a rotating rod.
For data set [6], the system named is Mus musculus. The data set is described as follows: Anticonvulsant activity in albino mouse assessed as protection against maximal electroshock-induced seizures at 100 mg/kg, ip after 0.5 hrs. It is filed as functional, organism-based. Also noted: dose 100 mg/kg.
Data set [7] concerns Mus musculus. The data set is described as follows: Neurotoxicity in albino mouse assessed as minimal motor impairment at 100 mg/kg, ip after 4 hrs by rotorod test. Particulars: in vivo. It is filed as toxicity, organism-based. Set-up: dose 100 mg/kg, route intraperitoneal.
Data set [8] concerns Mus musculus. The data set is described as follows: Anticonvulsant activity in albino mouse assessed as protection against subcutaneous metrazole-induced seizures at 100 mg/kg, ip after 1 hr. It is filed as functional, organism-based. Also noted: dose 100 mg/kg.
Data set [9] relates to Mus musculus. In words: Anticonvulsant activity in albino mouse assessed as protection against subcutaneous metrazole-induced seizures at 100 mg/kg, ip after 0.25 hrs. It is filed as functional, organism-based. Set-up: dose 100 mg/kg.
Data set [10] deals with Mus musculus. In words: Anticonvulsant activity in albino mouse assessed as protection against maximal electroshock-induced seizures at 100 mg/kg, ip after 0.25 hrs. It is filed as functional, organism-based. Set-up: dose 100 mg/kg.
For data set [11], the system named is Mus musculus. In words: Neurotoxicity in albino mouse assessed as minimal motor impairment at 100 mg/kg, ip after 0.25 hrs by rotorod test. It is filed as toxicity, organism-based. Set-up: dose 100 mg/kg, route intraperitoneal. As to conditions: in vivo.
Data set [12] deals with Mus musculus. The data set is described as follows: Neurotoxicity in albino mouse assessed as minimal motor impairment at 100 mg/kg, ip after 1 hr by rotorod test. It is filed as toxicity, organism-based. Set-up: dose 100 mg/kg, route intraperitoneal. As to conditions: in vivo.
Data set [13] relates to Mus musculus. The data set is described as follows: Anticonvulsant activity in albino mouse assessed as protection against maximal electroshock-induced seizures at 100 mg/kg, ip after 1 hr. Set-up: dose 100 mg/kg. It is filed as functional, organism-based.
Data set [14] is described as follows: Neurotoxicity in ip dosed albino mouse minimal clonic seizure model assessed as minimal motor impairment by rotorod test. Particulars: in vivo. It is filed as toxicity, organism-based.
Data set [15] concerns Mus musculus. The data set is described as follows: Anticonvulsant activity in ip dosed albino mouse assessed as time of peak effect for protection against 6 Hz psychomotor seizure by minimal clonic seizure test. It is filed as functional.
Data set [16] deals with Mus musculus. The data set is described as follows: Anticonvulsant activity in albino mouse assessed as protection against 6 Hz psychomotor seizure at 100 mg/kg, ip after 2 hrs by minimal clonic seizure test. It is filed as functional, organism-based. Also noted: dose 100 mg/kg.
In data set [17] the test system is Mus musculus. In words: Anticonvulsant activity in albino mouse assessed as protection against 6 Hz psychomotor seizure at 100 mg/kg, ip after 1 hr by minimal clonic seizure test. It is filed as functional, organism-based. Also noted: dose 100 mg/kg.
In data set [18] the test system is Mus musculus. The data set is described as follows: Anticonvulsant activity in albino mouse assessed as protection against 6 Hz psychomotor seizure at 100 mg/kg, ip after 0.5 hrs by minimal clonic seizure test. Also noted: dose 100 mg/kg. It is filed as functional, organism-based.
Data set [19] relates to Mus musculus. The data set is described as follows: Neurotoxicity in albino mouse minimal clonic seizure model assessed as minimal motor impairment at 100 mg/kg, ip after 0.25 hrs by rotorod test. It is filed as toxicity, organism-based. Also noted: dose 100 mg/kg, route intraperitoneal. As to conditions: in vivo.
The subject of data set [20] is Mus musculus. The data set is described as follows: Neurotoxicity in albino mouse minimal clonic seizure model assessed as minimal motor impairment at 100 mg/kg, ip after 4 hrs by rotorod test. It is filed as toxicity, organism-based. Also noted: dose 100 mg/kg, route intraperitoneal. Particulars: in vivo.
Data set [21] deals with Mus musculus. The data set is described as follows: Neurotoxicity in albino mouse minimal clonic seizure model assessed as minimal motor impairment at 100 mg/kg, ip after 1 hr by rotorod test. It is filed as toxicity, organism-based. Also noted: dose 100 mg/kg, route intraperitoneal. Particulars: in vivo.
Data set [22] relates to Mus musculus. The data set is described as follows: Anticonvulsant activity in albino mouse assessed as protection against 6 Hz psychomotor seizure at 100 mg/kg, ip after 0.25 hrs by minimal clonic seizure test. It is filed as functional, organism-based. Also noted: dose 100 mg/kg.
The test system of data set [23] is Mus musculus. The data set is described as follows: Neurotoxicity in albino mouse minimal clonic seizure model assessed as minimal motor impairment at 100 mg/kg, ip after 0.5 hrs by rotorod test. It is filed as toxicity, organism-based. Set-up: dose 100 mg/kg, route intraperitoneal. As to conditions: in vivo.
In data set [24] the test system is Mus musculus. The data set is described as follows: Neurotoxicity in albino mouse minimal clonic seizure model assessed as minimal motor impairment at 100 mg/kg, ip after 2 hrs by rotorod test. It is filed as toxicity, organism-based. Set-up: dose 100 mg/kg, route intraperitoneal. As to conditions: in vivo.
The test system of data set [25] is Mus musculus. The data set is described as follows: Anticonvulsant activity in albino mouse assessed as protection against 6 Hz psychomotor seizure at 100 mg/kg, ip after 4 hrs by minimal clonic seizure test. Also noted: dose 100 mg/kg. It is filed as functional, organism-based.
For data set [26], the system named is Mus musculus. The data set is described as follows: Anticonvulsant activity in ip dosed albino mouse assessed as protection against 6 Hz psychomotor seizure by minimal clonic seizure test. It is filed as functional.
The species named for data set [27] is Mus musculus. In words: Protective index, ratio of TD50 for albino mouse minimal clonic seizure model to ED50 for albino mouse assessed as protection against 6 Hz psychomotor seizure. It is filed as functional.

Molecules are shown by their SMILES. Calls of active or inactive are those of the source. The rule behind the calls is not given here.

A word on the TD50: it is the dose at which the toxic effect under study appears in half of the subjects. Usually ED50 stands for the midpoint of the dose-response relation.

For the compound `O=C1NC(=O)[C@@H]2CCCN2[C@H]1c1ccc2ccccc2c1`, the result in data set [1], in data set [2], in data set [3], in data set [4] and in data set [6] was inactive. Besides, the Activity entry in [5] and in data set [7] was “Non-toxic” each time.
In the case of `COc1cccc([C@H]2C(=O)NC(=O)[C@@H]3CCCN23)c1`, the result in data set [1], in [2], in data set [3], in data set [4], in data set [8] and in data set [9] was inactive. Moreover, the outcome in [13] was inactive. Moreover, the result in data set [10] and in data set [6] was Active. The Activity entry in data set [5], in [11], in data set [12] and in data set [7] was “Non-toxic” each time.
For the compound `CC[C@@H](C(N)=O)N1CCCC1=O`, in data set [14], the TD50 was more than 500 mg/kg. In addition, the Time in data set [15] amounted to 1 h.
Consider `O=C1NC(=O)[C@@H]2CCCN2[C@H]1c1ccco1`, for which the outcome in data set [1], in data set [2], in data set [3], in data set [4] and in data set [6] was inactive. The Activity entry is given as “Toxic” in data set [5] and “Non-toxic” in data set [7].
For `O=C1NC(=O)[C@@H]2CCCN2[C@H]1c1cccs1`, the outcome in data set [1], in [2], in [3] and in data set [4] was inactive. Also, the Activity entry in data set [5] is “Non-toxic”; in data set [11] it was “Toxic”; in data set [12] it was “Non-toxic”; in data set [7], “Non-toxic”. Moreover, the result in data set [6] was Active.
As to `COc1ccc([C@H]2C(=O)NC(=O)[C@@H]3CCCN23)cc1`, the outcome in data set [1], in [2], in data set [3], in data set [4], in data set [10] and in [6] was inactive. In addition, the outcome in data set [13] was inactive. Further, the Activity entry in data set [5], in [11], in [12] and in data set [7] was “Non-toxic” in each case.
In the case of `O=C1NC(=O)[C@@H]2CCCN2[C@H]1c1cc(Cl)cc(Cl)c1`, the result in data set [1], in data set [16], in data set [2], in data set [4], in data set [8] and in data set [9] was inactive. Besides, the outcome in data set [17] and in data set [25] was inactive. Besides, the outcome in data set [3], in data set [10], in data set [18], in data set [22], in data set [6] and in data set [13] was Active. The Activity entry in [5], in [19], in [11], in data set [20], in [21] and in data set [12] was “Non-toxic” each time. Also, the Activity result in data set [7], in data set [23] and in data set [24] was “Non-toxic” in each case.
As to `O=C1NC(=O)[C@@H]2CCCN2[C@H]1c1cccc2ccccc12`, the result in data set [1], in [2], in data set [3], in [4] and in data set [6] was inactive. Further, the Activity result in data set [5] and in data set [7] was “Non-toxic” throughout.
For `COc1ccccc1[C@H]1C(=O)NC(=O)[C@@H]2CCCN12`, the result in data set [1], in [16], in data set [2], in [3], in data set [4] and in data set [10] was inactive. Besides, the result in data set [6], in data set [25] and in data set [13] was inactive. Besides, the outcome in [17], in data set [18] and in data set [22] was Active. Moreover, the Activity entry in data set [5], in data set [19], in data set [11], in data set [20], in data set [21] and in data set [12] was “Non-toxic” each time. The Activity result in data set [7], in data set [23] and in data set [24] was “Non-toxic” each time.
In the case of `O=C1NC(=O)C(c2ccccc2)(c2ccccc2)N1` [PHENYTOIN], the ED50 in data set [26] is more than 60 mg/kg.
As for `CCC1(C)CC(=O)NC1=O` (centres undefined) [ETHOSUXIMIDE], in [15], the Time was determined as 0.25 h.
Turning to `Cc1ccc([C@H]2C(=O)NC(=O)[C@@H]3CCCN23)cc1`, the outcome in data set [1], in [16], in [2], in data set [3], in [4] and in [10] was inactive. Also, the result in data set [6], in [25] and in data set [13] was inactive. Besides, in data set [14], the TD50 is 167 mg/kg. In addition, the result in data set [17], in data set [18] and in data set [22] was Active. Moreover, the Activity result in data set [5], in [11], in data set [12] and in data set [7] was “Non-toxic” each time. In [15], the Time amounted to 0.25 h. The “Ratio TD50/ED50” value in data set [27] is given as 4. For the same compound, the 50% effective dose (ED50) in data set [26] was found to be 41.7 mg/kg.
Consider `O=C1NC(=O)[C@@H]2CCCN2[C@H]1c1ccoc1`, for which the outcome in data set [1], in data set [2], in [3], in data set [4] and in data set [6] was inactive. In addition, the Activity result in data set [5] and in data set [7] was “Non-toxic” each time.
